The values below come from patent US9056091B1, “Composition for regulation of liver X receptor” (National Taiwan University, priority 2014, dated 2015).

One experiment has as its target T1, hLXRα (Homo sapiens, UniProt Q13133).
T1 construct: expressed in transfected cells; host or cells: CHO-K1 (Chinese hamster ovary), transient transfection with pBKCMV GAL4-hLXRα
T1 sequence (Q13133 209-447 limits assumed): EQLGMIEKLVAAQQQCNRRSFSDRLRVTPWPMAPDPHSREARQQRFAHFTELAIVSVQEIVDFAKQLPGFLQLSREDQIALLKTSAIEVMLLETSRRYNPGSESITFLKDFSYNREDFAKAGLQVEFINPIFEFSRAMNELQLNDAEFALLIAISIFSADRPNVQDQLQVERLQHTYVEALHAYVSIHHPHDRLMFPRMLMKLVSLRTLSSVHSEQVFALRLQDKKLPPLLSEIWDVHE
Kind of experiment: LXRα transactivation activity, GAL4-hLXRα LBD / (UAS)4-alkaline phosphatase reporter, transient transfection in CHO-K1 cells. The following applies: for LXRα transactivation activity, % of T0901317: co-treated with LXR agonist T0901317 (0.5 μM); for LXRα transactivation activity, % of T0901317 / LXRα transactivation activity: 48 hours; for Antagonistic effect (LXRα), ↓ percentage: against LXR agonist (T0901317); for LXRα transactivation activity: sample alone at 1, 5, and 10 μM, p>0.05 vs vehicle; for Enhancing effect (LXRα): sample alone, enhancing percentage relative to positive control. More on the design: key to Enhancing effect (LXRα): “—” indicates no significant effect. The format is cell-based. From the text:
(§1) For the evaluation of LXR transactivation activity, the embodiments of the present invention utilize transient transfection and the vectors used are: (1) pBKCMV GAL4-hLXRα and pBKCMV GAL4-hLXRβ; (2) pBKCMV (UAS)4-alkaline phosphatase, wherein pBKCMV GAL4-hLXRα and pBKCMV GAL4-hLXRβ are pBKCMV vectors having chimeric receptor of GAL4-hLXRα ligand binding doman (LBD) and GAL4-hLXRβ LBD, while pBKCMV (UAS)4-alkaline phosphatase is the pBKCMV vector having the reporter gene of (UAS)4 alkaline phosphatase (ALP). UAS indicates upstream activation sequence. All vectors were co-transfected into Chinese hamster ovary cell (CHO-K1, from Bioresource Collection and Research Center of Food Industry Research and Development Institute, BCRC: 6006).
(§2) Transient transfection of the embodiments of the present invention was performed using Lipofectamin 2000 (Invitrogen). Firstly, after CHO-K1 cells were fully grown, cells were dis-attached by trpsin-EDTA solution and were eluted using 10% CSF-Ham's F-12, wherein CSF represents the FBS pretreated by charcoal (Dextran coated, Sigma, C6231). The cell suspension was diluted to 2.5×10^5 cells/mL, planted onto 96-well plate (100 μL/well), and incubated for 20 to 24 hours at 37° C. with 5% CO2.
(§3) Detailed steps for transfection are as follow: Lipofectamine 2000 was diluted in PS tubes by serum-free OPTI-MEM®I (GIBCO, 31985) for 5 minutes at room temperature; the vector DNA was diluted by a small amount of serum-free OPTI-MEM®I; the vectors in Table 2 were mixed with Lipofectamine 2000 with specific ratio (GAL4-hLXRα:(UAS)4-ALP=4:1; GAL4-hLXRβ:(UAS)4-ALP=4:1) and reacted for 20 minutes at room temperature. During the reaction, the cells were washed by serum-free Ham's F-12 medium (100 μL/well) twice to allow the formation of DNA-liposome complex; the vectors were then added to the above washed cells for transfection to take place at 37° C. and 5% CO2. Solution for transfection was removed after the transient transfection was completed.
Cells after transient transfection in Example 1 and removing the transfection solution were added to fucoxanthin and fucoxanthinol diluted with 10% TCM-Ham's F-12, LXR agonist T0901317, or none, to serve as experimental group, positive control, or vehicle, respectively. The ALP activities of all groups were analysis after incubation for 48 hours at 37° C. with 5% CO2.
(§4) The ALP activity analysis was performed by reacting the culture medium (20 μL/well) and reactant (100 mM pNPP:H2O:2X SEAP assay buffer=1:9:10, 200 μL/well) in a new 96-well plate for 15 minutes at 37° C. The absorbance at 405 nm was measured using microspectrometer.

A further experiment has as its target T2, hLXRβ (Homo sapiens, UniProt P55055).
T2 construct: expressed in transfected cells; host or cells: CHO-K1 (Chinese hamster ovary), transient transfection with pBKCMV GAL4-hLXRβ
T2 sequence (P55055 222-460 limits assumed): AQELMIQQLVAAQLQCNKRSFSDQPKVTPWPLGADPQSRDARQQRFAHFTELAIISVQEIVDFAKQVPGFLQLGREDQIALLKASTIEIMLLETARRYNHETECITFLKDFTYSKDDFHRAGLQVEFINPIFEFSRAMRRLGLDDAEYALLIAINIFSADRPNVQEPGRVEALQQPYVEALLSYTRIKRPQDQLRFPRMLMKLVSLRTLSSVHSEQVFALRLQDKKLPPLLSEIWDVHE
Kind of experiment: LXRβ transactivation activity, GAL4-hLXRβ LBD / (UAS)4-alkaline phosphatase reporter, transient transfection in CHO-K1 cells. The format is cell-based. Particulars: for LXRβ transactivation activity, % of GW3965: co-treated with LXR agonist GW3965 (0.5 μM); for LXRβ transactivation activity, % of GW3965 / LXRβ transactivation activity, % of the positive control GW3965: 48 hours; for Antagonistic effect (LXRβ), ↓ percentage: against LXR agonist (GW3965); for Enhancing effect (LXRβ), ↑ percentage: sample alone, relative to positive control.
Source text: as §1, §2, §3, §4
Cells after the abovementioned transient transfection and removing the transfection solution were added to fucoxanthin and fucoxanthinol diluted with 10% TCM-Ham's F-12, LXR agonist GW3965 (3-[3-[[[2-Chloro-3-trifluoromethyl)-phenyl]methyl](2,2-diphenyl-ethyl)amino]-propoxy]benzeneacetic acid), or none, to serve as experimental group, positive control, or vehicle, respectively. The ALP activities of all groups were analysis after incubation for 48 hours at 37° C. with 5% CO2. Same method for ALP analysis applied as describe in Example 2.

In the case of fucoxanthin, on hLXRα (5 μM), the “LXRα transactivation activity, % of T0901317” value is listed as 76%. Also, at hLXRα (10 μM), the “Antagonistic effect (LXRα), ↓ percentage” value is “↓59%” and the “LXRα transactivation activity, % of T0901317” value is reported as 41%. At hLXRα, the LXRα transactivation activity entry is “no significant LXRα transactivation activities” and the “Enhancing effect (LXRα)” value is recorded as “—”. In addition, the “LXRβ transactivation activity, % of GW3965” value on hLXRβ (5 μM) is 69%. In addition, at hLXRβ (10 μM), the “Antagonistic effect (LXRβ), ↓ percentage” value is “↓49%”; the “LXRβ transactivation activity, % of GW3965” value came to 51%; the “Enhancing effect (LXRβ), ↑ percentage” value was “↑2%”. At hLXRβ (sample alone at 10 μM), the “LXRβ transactivation activity, % of the positive control GW3965” value is listed as “approximately 2%”.

Take `C\C(C=C=C1C(C)(C)C[C@H](O)C[C@@]1(C)O)=C/C=C/C(C)=C/C=C/C=C(C)/C=C/C=C(\C)C(=O)C[C@@]12O[C@]1(C)C[C@@H](O)CC2(C)C` [fucoxanthinol]: the “LXRα transactivation activity, % of T0901317” value at hLXRα (5 μM) is 48%. Also, on hLXRα (10 μM), the “Antagonistic effect (LXRα), ↓ percentage” value is “↓80%” and the “LXRα transactivation activity, % of T0901317” value is recorded as 20%. Besides, at hLXRα, the LXRα transactivation activity result is recorded as “no significant LXRα transactivation activities” and the “Enhancing effect (LXRα)” value is “—”. In addition, at hLXRβ (1 μM), the “LXRβ transactivation activity, % of GW3965” value is reported as 79% and the “Enhancing effect (LXRβ), ↑ percentage” value is given as “↑3%”. At hLXRβ (5 μM), the “LXRβ transactivation activity, % of GW3965” value is given as 62%. For the same compound, on hLXRβ (10 μM), the “Antagonistic effect (LXRβ), ↓ percentage” value was “↓64%” and the “LXRβ transactivation activity, % of GW3965” value worked out at 36%. Further, the “LXRβ transactivation activity, % of the positive control GW3965” value at hLXRβ (sample alone at 1 μM) was “approximately 3%”. In addition, on hLXRβ (sample alone at 5 μM), the “LXRβ transactivation activity, % of the positive control GW3965” value is reported as “approximately 2%”.
